Laboratory results: publication PMC8870237, “Improved Multimodal Tumor Necrosis Imaging with IRDye800CW-DOTA Conjugated to an Albumin-Binding Domain” (Cancers, 2022)

Experiments:
[1] = In vivo stability (radio-HPLC of urine 1 h after injection); set-up: species or system mouse; settings: mice, i.v., 1 h p.i.
Excerpt: After an hour, the mice were sacrificed by cervical dislocation and blood and urine were collected, which were frozen in liquid nitrogen directly after extraction. […] The supernatant was collected and analyzed by radio-HPLC (Method-D).

4T1-Luc2 tumors = assay: SPECT/CT tumor necrosis imaging, quantified tumor uptake; assay type: in vivo, mouse; settings: 4T1-Luc2 tumor-bearing mice, 24 h p.i.
Procedure: The 4T1-Luc2 cells (1.0 × 10^5) suspended in 15 µL PBS were inoculated bilaterally in 16 mice in four groups of four animals each. Nine days later, the tumor-bearing mice were injected with [^111In]3 (20 MBq, 2 nmol, in 200 µL PBS) into the tail vein, after which imaging was performed at timepoints 6, 24, 48, and 72 h post-injection (p.i.) under isoflurane anesthesia (4% induction, 1.5 to 2% maintenance in 100% O2), whilst maintaining the body temperature constant. First, FLI imaging was performed with a 730 nm excitation and 760 nm emission filter for 400 ms with 4 × 4 binning. Then, the mice received an intraperitoneal injection of D-luciferin (150 mg/kg) maintaining the position of the mice in the bed unaltered, and BLI imaging was performed with an open filter for 400 ms with 4 × 4 binning. Full body (head to tail base) SPECT images of the 5 cm axial field of view were obtained over a total scan time of 30 min, followed by a 2 min full-body CT. After imaging, the mice were euthanized for ex vivo analysis.
Acquired SPECT and PET images were reconstructed using SR-OSEM with 9 iterations and 128 subsets on a 36 × 36 × 35 mm matrix with 0.80 mm isotropic voxels. For the PET images, a decay correction of 109.7 min was applied. The PET and SPECT images were superposed with CT. The images were further analyzed in Pi-Mod. […]

MCF7-Luc2 tumors = assay: Tumor uptake in doxorubicin- or saline-treated MCF7-Luc2 tumor-bearing mice; assay type: in vivo, mouse; settings: 24 h p.i., ±SEM
Procedure: (§1) The quadruple modality imaging procedure is illustrated in Figure S21. The tumor-bearing mice were injected with [^111In]3 (20 MBq, 2 nmol) in 200 µL PBS into the tail vein. The following day, the mice fasted for four hours before they were injected with [^18F]FDG (10 MBq, 200 µL) in PBS. At 24 h p.i. of [^111In]3 and 1 h p.i. of [^18F]FDG, FLI imaging was performed with a 730 nm excitation and 760 nm emission filter for 400 ms with 4 × 4 binning. Then, the mice received an intraperitoneal injection of D-luciferin (150 mg/kg) maintaining the position of the mice in the bed unaltered. During the onset of the bioluminescence signal, PET/SPECT imaging was performed of the tumors with a 2 cm axial field of view over a total scan time of 30 min, followed by a 2 min full-body CT. Finally, BLI imaging was performed with an open filter for 400 ms with 4 × 4 binning. Imaging was performed under isoflurane anesthesia whilst maintaining the body temperature constant.
Six mice were inoculated bilaterally with MCF7-Luc2 cells (3.0 × 10^6), suspended in 30 µL PBS:Matrigel (1:1; v/v). On days 14, 16, and 18 after inoculation, the tumor-bearing mice received either doxorubicin (5 mg/kg, Janssen Pharmaceuticals, Beerse, Belgium) or a saline solution via i.v. injection. On days 21 and 22 after inoculation, the mice underwent the FLI, BLI, and PET/SPECT/CT imaging procedure (vide supra).
After the final imaging experiments, the mice were sacrificed by cervical dislocation, tumors and organs were collected, weighted, and activity was accurately quantified by γ-counting to determine radioactivity uptake in the percentage of injected dose per gram (%ID/g). After γ-counting, the tumors were frozen in liquid nitrogen and stored at −80 °C overnight. Adjacent cryosections (10 µm) were prepared of the tumor centers for autoradiography. The sections were stored at −20 °C for the radioactivity to decay, before 800 nm fluorescence imaging and histochemical dead cell staining.

EMT6-Luc2 tumors = assay: Tumor uptake in EMT6-Luc2 tumor-bearing mice; assay type: in vivo, mouse; settings: untreated, 24 h p.i., ±SEM
Procedure: as §1, with “constant. […]” for “constant.”
After the final imaging experiments, the mice were sacrificed by cervical dislocation, tumors and organs were collected, weighted, and activity was accurately quantified by γ-counting to determine radioactivity uptake in the percentage of injected dose per gram (%ID/g). […] The sections were stored at −20 °C for the radioactivity to decay, before 800 nm fluorescence imaging and histochemical dead cell staining.

For `CC1(C)C(=CC=C2CCCC(C=CC3=[N+](CCCCCC(=O)NCCCC[C@H](NC(=O)CCCc4ccc(I)cc4)C(=O)NCc4ccc(CNC(=O)CN5CCN(CC(=O)[O-])CCN(CC(=O)[O-])CCN(CC(=O)[O-])CC5)cc4)c4ccc(S(=O)(=O)O)cc4C3(C)C)=C2Oc2ccc(S(=O)(=O)O)cc2)N(CCCCS(=O)(=O)O)c2ccc(S(=O)(=O)O)cc21.[111In+3]` [[^111In]3], the “in vivo stability, remained stable” value [1] was greater than 95%, the “radioactive tumor uptake in the SPECT images” value (4T1-Luc2 tumors) was 3.83 ± 0.19 %ID/mL and the “tumor uptake of [111In]3” value (MCF7-Luc2 tumors; after doxorubicin treatment (5 mg/kg i.v., 3 injections)) was 2.25 ± 0.16 %ID/g. For the same compound, the “tumor uptake of [111In]3” value (MCF7-Luc2 tumors; after saline treatment (control)) was 1.74 ± 0.08 %ID/g and the “tumor uptake of [111In]3” value (EMT6-Luc2 tumors) was 2.81 ± 0.21 %ID/g.
